Laboratory results published in patent US6972296B2, “Carboxylic acid derivatives that inhibit the binding of integrins to their receptors” (Encysive Pharmaceuticals Inc., priority 1999, dated 2005).

Biological target: T1, α4β1 integrin (Homo sapiens, UniProt P05556+P13612)
T1 construct: endogenous in cells; host or cells: Ramos cells
Assay: Adhesion of calcein-labeled Ramos cells to CS1 (fibronectin) peptide conjugated ovalbumin
Format: cell-based
Settings: Ramos cell adhesion to CS1 conjugated ovalbumin
Procedure, shortened: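 Calcein AM-labelled Ramos cells (2.5×10^5/well) with compound, up to 100 μM, added to plates coated with CS1 peptide–ovalbumin (0.5 μg/ml) and blocked with 3% BSA. Binding buffer TBS pH 7.5 with 1 mM each MgCl2, CaCl2, MnCl2; 30 min, 37 °C. After washes, adherent cells lysed and read fluorometrically; […].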

[1] = Table 7, dose required to give 50% inhibition
[2] = Table 5, dose required to give 50% inhibition

T1 sequence (P13612 34-1032): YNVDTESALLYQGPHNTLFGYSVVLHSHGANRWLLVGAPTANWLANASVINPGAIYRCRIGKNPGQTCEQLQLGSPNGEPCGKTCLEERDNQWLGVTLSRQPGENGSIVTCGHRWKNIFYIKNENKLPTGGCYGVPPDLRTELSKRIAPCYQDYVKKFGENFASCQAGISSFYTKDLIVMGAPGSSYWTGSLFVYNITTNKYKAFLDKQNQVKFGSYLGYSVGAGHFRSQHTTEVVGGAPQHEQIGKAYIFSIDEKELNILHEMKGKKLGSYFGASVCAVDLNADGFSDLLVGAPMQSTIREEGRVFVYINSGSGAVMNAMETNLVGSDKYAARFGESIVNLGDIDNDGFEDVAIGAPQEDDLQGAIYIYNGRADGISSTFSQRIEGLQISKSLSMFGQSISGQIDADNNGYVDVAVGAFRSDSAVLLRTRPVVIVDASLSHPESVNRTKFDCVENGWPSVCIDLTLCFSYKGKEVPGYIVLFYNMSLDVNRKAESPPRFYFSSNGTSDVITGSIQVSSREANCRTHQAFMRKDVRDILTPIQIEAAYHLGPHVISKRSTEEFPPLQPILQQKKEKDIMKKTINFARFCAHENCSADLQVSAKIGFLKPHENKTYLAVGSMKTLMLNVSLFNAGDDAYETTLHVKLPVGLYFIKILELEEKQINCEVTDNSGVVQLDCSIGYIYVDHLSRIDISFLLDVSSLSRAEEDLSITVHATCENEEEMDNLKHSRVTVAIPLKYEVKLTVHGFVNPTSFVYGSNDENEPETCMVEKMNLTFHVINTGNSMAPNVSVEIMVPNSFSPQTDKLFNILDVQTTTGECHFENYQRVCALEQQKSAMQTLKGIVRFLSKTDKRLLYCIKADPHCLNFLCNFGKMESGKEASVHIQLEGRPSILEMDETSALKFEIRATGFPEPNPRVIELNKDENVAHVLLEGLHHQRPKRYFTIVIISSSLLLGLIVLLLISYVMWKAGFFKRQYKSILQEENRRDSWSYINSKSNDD
T1 sequence (P05556 21-798): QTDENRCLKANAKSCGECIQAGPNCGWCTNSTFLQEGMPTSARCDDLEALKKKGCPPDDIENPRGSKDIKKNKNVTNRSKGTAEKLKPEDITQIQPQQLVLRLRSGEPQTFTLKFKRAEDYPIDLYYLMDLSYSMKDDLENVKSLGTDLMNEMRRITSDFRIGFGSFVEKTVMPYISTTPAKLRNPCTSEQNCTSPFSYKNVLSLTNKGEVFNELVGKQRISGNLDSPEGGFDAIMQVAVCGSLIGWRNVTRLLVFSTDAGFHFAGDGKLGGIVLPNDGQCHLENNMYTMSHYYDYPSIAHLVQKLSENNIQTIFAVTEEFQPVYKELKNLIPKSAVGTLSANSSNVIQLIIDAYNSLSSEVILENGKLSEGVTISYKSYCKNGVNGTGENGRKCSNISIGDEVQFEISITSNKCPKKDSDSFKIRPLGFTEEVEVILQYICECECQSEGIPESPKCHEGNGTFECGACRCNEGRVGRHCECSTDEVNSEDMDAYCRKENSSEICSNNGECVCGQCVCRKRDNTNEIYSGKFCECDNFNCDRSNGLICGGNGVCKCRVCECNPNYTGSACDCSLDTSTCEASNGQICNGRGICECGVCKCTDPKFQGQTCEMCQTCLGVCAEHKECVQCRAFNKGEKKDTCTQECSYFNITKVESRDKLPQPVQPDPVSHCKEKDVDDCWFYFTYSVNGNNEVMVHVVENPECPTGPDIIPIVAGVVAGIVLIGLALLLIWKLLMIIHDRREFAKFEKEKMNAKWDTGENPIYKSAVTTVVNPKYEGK

Row | IC50 [1] [nM] | SMILES | also measured
1 | 22 | CCc1nn(Cc2ccccc2Cl)c(=O)c(NC(=O)N[C@@H](CC(=O)O)c2ccc(C)cc2)c1O | 
2 | 5 | CCCOc1cccc(Cl)c1Cn1cc(C)c(O)c(NC(=O)N[C@@H](CC(=O)O)c2cccc(OCC)c2)c1=O | 
3 | 7 | O=C(O)C[C@H](NC(=O)Nc1c(O)c2c(n(Cc3ccccc3Cl)c1=O)CCC2)c1cccc(OC2CCCC2)c1 | 
4 | 12 | CCCc1ccc([C@H](CC(=O)O)NC(=O)Nc2c(O)c(C)cn(Cc3ccccc3Cl)c2=O)cc1 | 

Continued, molecule first:

Row | SMILES | IC50 [1] [nM] | also measured
5 | Cc1ccc([C@H](CC(=O)O)NC(=O)Nc2cccn(Cc3ccc(C(C)(C)C)cc3)c2=O)cc1 |  | IC50 (Table 4, 30 minutes at 37° C.): 6000 nM
6 | O=C(O)C[C@H](NC(=O)Nc1cccn(Cc2ccccc2Cl)c1=O)c1c(O)cccc1O |  | IC50 (Table 4, 30 minutes at 37° C.): 3000 nM
7 | Cc1ccc([C@H](CC(=O)O)NC(=O)Nc2cccn(Cc3cc(F)ccc3F)c2=O)cc1 |  | IC50 (Table 4, 30 minutes at 37° C.): 800 nM
8 | CCOc1ccc(Cl)c(Cn2cc(C)c(O)c(NC(=O)N[C@@H](CC(=O)O)c3ccc(C)cc3)c2=O)c1 | 4 | 
9 | Cc1ccc([C@H](CC(=O)O)NC(=O)Nc2c(O)c(C)cn(Cc3cccc(Cl)c3)c2=O)cc1 |  | IC50 (Table 6, 30 minutes at 37° C.): 20 nM
10 | Cc1cc(C)cc([C@H](CC(=O)O)NC(=O)Nc2cccn(Cc3ccccc3Cl)c2=O)c1 |  | IC50 (Table 4, 30 minutes at 37° C.): 100 nM
11 | O=C(O)CC(NC(=O)Nc1c(O)ccn(Cc2ccccc2Cl)c1=O)c1cc2ccccc2o1 (centres unmarked) |  | IC50 (Table 6, 30 minutes at 37° C.): 140 nM
12 | CCCc1cn(Cc2ccc(Cl)cc2)c(=O)c(NC(=O)N[C@@H](CC(=O)O)c2cccc(OCC)c2)c1O |  | IC50 [2]: 30 nM
13 | CCOc1cccc([C@H](CC(=O)O)NC(=O)Nc2c(O)c3c(n(Cc4c(OCC)ccc(Cl)c4Cl)c2=O)CCC3)c1 | 3 | 
14 | Cc1cccc(Cl)c1Cn1c2c(c(O)c(NC(=O)N[C@@H](CC(=O)O)c3ccc(C4CC4)cc3)c1=O)CCC2 | 19 | 
15 | Cc1cn(Cc2c(C)cccc2Cl)c(=O)c(NC(=O)NC(CC(=O)O)c2ccc(S(C)(=O)=O)cc2)c1O (centres unmarked) | 43 | 
16 | O=C(O)C[C@H](NC(=O)Nc1c(O)c2c(n(Cc3ccccc3Cl)c1=O)CCC2)c1cccc(C(F)(F)F)c1 | 10 | 
17 | CCOc1cccc(Cl)c1Cn1cc(C)c(O)c(NC(=O)N[C@@H](CC(=O)O)c2cccc(C(F)(F)F)c2)c1=O | 3 | 
18 | CC(C)Oc1cccc([C@H](CC(=O)O)NC(=O)Nc2c(O)c3c(n(Cc4ccccc4Cl)c2=O)CCC3)c1 [(3S)-3-[({[1-(2-chlorobenzyl)-4-hydroxy-2-oxo-2,5,6,7-tetrahydro-1H-cyclopenta[b]pyridin-3-yl]amino}carbonyl)amino]-3-(3-isopropoxyphenyl)propanoic acid] |  | IC50 (Table 6, 30 minutes at 37° C.): 3 nM
19 | O=C(O)C[C@H](NC(=O)Nc1c(O)c2c(n(Cc3ccccc3Cl)c1=O)CCC2)c1ccc(OC(F)F)cc1 | 13 | 
20 | O=C(O)C[C@H](NC(=O)Nc1c(O)ccn(Cc2ccccc2Cl)c1=O)c1cccc(F)c1 |  | IC50 (Table 3, 30 minutes at 37° C.): 40 nM
21 | CCOc1cccc([C@H](CC(=O)O)NC(=O)Nc2c(O)c(CC)c(C)n(Cc3c(Cl)cccc3OCC)c2=O)c1 | 4 | 
22 | Cc1ccc([C@H](CC(=O)O)NC(=O)Nc2c(F)ccn(Cc3ccccc3Cl)c2=O)cc1 |  | IC50 (Table 3, 30 minutes at 37° C.): 15 nM
23 | COc1cccc(OC)c1Cn1ccc(O)c(NC(=O)N[C@@H](CC(=O)O)c2ccc(C)cc2)c1=O [(3S)-3-[({[1-(2,6-dimethoxybenzyl)-4-hydroxy-2-oxo-1,2-dihydropyridin-3-yl]amino}carbonyl)amino]-3-(4-methylphenyl)propanoic acid] |  | IC50 [2]: 10 nM
24 | CCOc1cccc(Cl)c1Cn1c(C)c(C)c(O)c(NC(=O)N[C@@H](CC(=O)O)c2ccccc2)c1=O | 4 | 
25 | COCCOc1cccc([C@H](CC(=O)O)NC(=O)Nc2c(O)ccn(Cc3ccccc3Cl)c2=O)c1 [(3S)-3-[({[1-(2-chlorobenzyl)-4-hydroxy-2-oxo-1,2-dihydropyridin-3-yl]amino}carbonyl)amino]-3-[3-(2-methoxyethoxy)phenyl]propanoic acid] |  | IC50 [2]: 3 nM
26 | COc1cccc(Cl)c1Cn1cccc(NC(=O)N[C@@H](CC(=O)O)c2ccc(C)cc2)c1=O [(3S)-3-[({[1-(2-chloro-6-methoxybenzyl)-2-oxo-1,2-dihydropyridin-3-yl]amino}carbonyl)amino]-3-(4-methylphenyl)propanoic acid] |  | IC50 [2]: 100 nM
